{
  "source": "patent US6465527B1",
  "about": "“Iodinated hydrocarbon pesticide” (priority 1999, dated 2002)",
  "key": {"[1]": {"system": "Cowpea weevil, Callosobruchus maculatus (F.)", "test": "Fumigant toxicity, Cowpea weevil", "format": "in vivo", "set-up": "concentration or dose not given beside the values", "settings": "30 adults", "protocol": "Shown in Table 2 is the toxicity of both monoiodinated and diiodinated hydrocarbons to the German and American cockroach and the Cowpea weevil after 24 hours of exposure."}, "[2]": {"system": "American cockroach, Periplaneta americana (L.)", "test": "Fumigant toxicity in sealed glass jar, American cockroach", "format": "in vivo", "settings": "8-36 adult males"}, "[3]": {"system": "reniform nematode [Rotylenchulus reniformis]", "test": "Greenhouse nematicide test in cotton field soil, covered and uncovered pots (Experiment 6, FIGS. 1-4)", "format": "in vivo", "source_text": "FIGS. 2 and 3 illustrate the effectiveness of the diiodoethane and diiodopropane in eliminating the nematode (Rotylenchulus reniformis) from a soil sample. The “x” axis on the top row illustrates the quantity of iodinated hydrocarbon in milligrams per kilogram of soil. The next two rows below the “x” axis indicate the number of nematodes per 100 milliliters of soil, which is also indicated on the “y” axis. In FIG. 2, 1,2-diiodoethane was applied to the soil both in a covered state and an uncovered state. […] This is believed to be so because of the volatility of 1,2 diiodoethane, wherein the cover slows down the rate at which the compound evaporates into the atmosphere.\nIn this experiment, the pesticidal and herbicidal properties of volatile, low molecular weight, iodinated hydrocarbons were investigated. The relative nematicidal efficacy of iodomethane [C1], 1,2-diiodoethane [C2], 1,3-diiodopropane [C3] and 1,4-diiodobutane [C4] was studied in greenhouse experiments with soil from a cotton field infested with the reniform nematode [Rotylenchulus reniformis]. The chemicals were obtained from Aldrich, Milwaukee, U.S.A. Emulsifiable concentrates of the compounds were prepared by dilution in acetone containing an emulsogen.\n(§1) For each chemical, an aqueous emulsion with 0.2% [w/w] of the compound was prepared and was applied to soil at rates of 2, 4, 6, 8, 10, and 12 mgs a.i./Kg soil. The treated soil was mixed and transferred to 1L capacity 10-cm diameter cylindrical pots. Pots with untreated soil [control] and with treated soil were placed on a greenhouse bench in a randomized complete block design. Each treatment was represented by 14 replications [pots], one half of which were left uncovered, and the other 7 were covered with polyethylene plastic bags [approx. 1 mil thickness] retained with a rubber around the pots. Soil samples for nematological analysis [salad bowl incubation technique] were collected 7-10 days after application of the materials. […] In covered pots, applications of the material were particularly effective resulting in 100% kill with the 10 and 12 mg rates. All dosages of C3 and C4 eliminated the nematode in covered pots. […] In a greenhouse experiment of similar design to the nematicide experiments, the C3 and C4 emulsions were applied at rates of 2-20 mgs a.i./Kg soil to a soil infested with crabgrass [Digitaria sanguinalis], purple nutsedge [Cyperus rotundus], Jimson weed [Datura stramonium] and a variety of other weed species. All pots were covered, and the number of weeds were counted 7, 14 and 30 days after application of the chemicals."}, "Meloidogyne arenaria": {"system": "Meloidogyne arenaria", "test": "Greenhouse nematicide test, diiodinated C2-C8 hydrocarbons in infested field soil (Experiments 1 and 2)", "format": "in vivo", "settings": "rates ≧5.0 mg", "protocol": "(§2) Additionally, the nematicidal properties of iodinated hydrocarbons were investigated in greenhouse experiments with field soil infested with Meloidogyne arenaria and Heterodera Glycines. Chemicals were added directly to infested solid at rates <100 mg/Kg soil. Treated soil was kept moist (approximately 60 percent field capacity) and uncovered for 7-10 days when samples were collected, and the pots were planted with ‘Brim’ soybean, Glycine max. […] 1,2-diiodoethane (C2), 1,3-diiodopropane (C3), 1,4-diiodobutane (C4), 1,5-diiodopentane (C5), 1,6-diiodohexane (C6), and […] were applied to soil rates of 2.5, 5.0, 7.5, and 10 mg/Kg soil. All rates of C2 and C8 were ineffective in reducing M. arenaria juvenile (J2) populations in preplant samples. This was also true for C2 and J2 populations of H. glycines; however, […] rates ≧5.0 mg suppressed J2 populations of H. glycines. […] H. glycines J2 numbers in final soil samples were generally inversely related to rates for C3-C8. […] Applications of C3-C6 to soil increased shoot weights in a manner directly related to dosages but only in a curvilinear pattern.\n(§3) In this experiment, the nematicidal properties of various diiodinated hydrocarbons were compared. The nematicidal properties of diiodinated C2-C8 normal hydrocarbons was assessed in a greenhouse experiment with field soil infested with Meloidogyne arenaria [Ma] and Heterodera glycines [Hg]. 1,2-diiodoethane [C2], 1,3-diiodopropane [C3], 1,4-diiodobutane [C4], 1.5-diiodopentane [C5], 1,6-diiodohexane [C6] and 1,8-diiodooctane [C8] were applied to soil at rates of 2.5, 5.0, 7.5, and 10.0 mgs/kg soil. The potted soil was kept moist in a greenhouse for 10 days when preplant samples were collected for analysis, and the pots were planted with ‘Brim’ soybean [Glycine max]. After 7 weeks of growth, the plants were removed and final soil samples taken. Data was collected on weights of fresh roots and shoots, root galling by Ma, and numbers of nematodes in soil and roots. All rates of C2 and C8 were ineffective in reducing Ma juvenile [J2] populations in the preplant samples. This was also true for C2 and J2 populations of Hg; however, C8 rates ≧5.0 mg suppressed J2 populations of Hg. […] Hg J2 numbers in final soil samples were generally inversely related to rates for C3-C8. This pattern of suppression in J2 numbers was also applicable to Ma in the final soil samples but only for C3-C6. […] Applications of C3-C6 to soil increased shoot weights in a manner directly related to dosages but non-linear in pattern."}, "Heterodera glycines": {"system": "Heterodera glycines", "test": "Greenhouse nematicide test, diiodinated C2-C8 hydrocarbons in infested field soil (Experiments 1 and 2)", "format": "in vivo", "settings": "rates ≧5.0 mg", "protocol": "as §2, §3"}, "[4]": {"system": "crabgrass [Digitaria sanguinalis], purple nutsedge [Cyperus rotundus], Jimson weed [Datura stramonium] and a variety of other weed species", "test": "Greenhouse herbicide test in weed-infested potted soil (Experiment 6, FIG. 6)", "format": "in vivo", "protocol": "(§4) Illustrated in FIGS. 6 and 7 are the herbicidal properties of the present invention. In FIG. 6, 1,3-diiodopropane and 1,4-diiodobutane were added to a soil sample contained in a pot, wherein the number of weeds were counted at the end of a one week period. The top row of the “x” axis plots the amount in milligrams of iodinated hydrocarbon added per kilogram of soil. The two rows below the top row depict the number of weeds found after a week, which is also plotted on the “y” axis. […] It is inferred that greater dosages would eliminate an even greater number of weeds. FIG. 7 depicts similar results except that the weed controlled was only one variety: crabgrass. […] It is also inferred that dosages larger than 20 mg of iodinated hydrocarbons would further eliminate an even greater number of crabgrass plants.\nas §1"}, "[5]": {"system": "German cockroach, Blattella germanica (L.)", "test": "Fumigant toxicity in sealed glass jar, German cockroach", "format": "in vivo", "settings": "30-60 adult males"}, "crabgrass": {"system": "crabgrass", "test": "Herbicide test in potted soil containing crabgrass (FIG. 7)", "format": "in vivo, Digitaria sanguinalis", "settings": "up to 20 mg per kg of soil", "protocol": "as §4\nFor each chemical, an aqueous emulsion with 0.2% [w/w] of the compound was prepared and was applied to soil at rates of 2, 4, 6, 8, 10, and 12 mgs a.i./Kg soil. The treated soil was mixed and transferred to 1L capacity 10-cm diameter cylindrical pots. Pots with untreated soil [control] and with treated soil were placed on a greenhouse bench in a randomized complete block design. […] All pots were covered, and the number of weeds were counted 7, 14 and 30 days after application of the chemicals."}, "[6]": {"settings": "up to 20 mg per kg of soil, one week"}},
  "data": [
    {"smiles": "ICCCI", "note": "[1,3-diiodopropane]", "values": [
      {"measurement": "% Mortality after 24 h exposure, Cowpea weevil", "setting": "[1]", "result": 97, "unit": "%"},
      {"measurement": "% Mortality after 1 h exposure, American cockroach", "setting": "[2]; 1 h exposure", "result": 0, "unit": "%"},
      {"measurement": "% Mortality after 24 h exposure, American cockroach", "setting": "[2]; 24 h exposure", "result": 100, "unit": "%"},
      {"measurement": "Elimination of the nematodes from the soil (FIG. 3)", "setting": "[3]; covered and uncovered state", "result": "able to eliminate the nematodes"},
      {"measurement": "Nematode in soil, covered pots", "setting": "[3]; covered pots, all dosages (2-12 mgs a.i./Kg soil)", "result": "eliminated"},
      {"measurement": "Mortality of the nematode", "setting": "[3]; uncovered pots, 3 highest rates", "result": 100, "unit": "%"},
      {"measurement": "Relative effectiveness in uncovered pots", "setting": "[3]; uncovered pots, rates ≦6 mgs/Kg soil", "result": "somewhat more effective than C4"},
      {"measurement": "M. arenaria J2 populations in preplant samples", "setting": "Meloidogyne arenaria", "result": "virtually eliminated"},
      {"measurement": "H. glycines J2 populations in preplant samples", "setting": "Heterodera glycines", "result": "virtually eliminated"},
      {"measurement": "Weed control, relative effectiveness", "setting": "[4]; 2-20 mgs a.i./Kg soil, covered pots, weeds counted 7, 14 and 30 days after application", "result": "significantly more effective in controlling weeds than C4"},
      {"measurement": "Controlling weeds, comparison (FIG. 6)", "setting": "[4]; [6]", "result": "better results"},
      {"measurement": "Number of weeds found in the pots as the dosage is increased (FIG. 6)", "setting": "[4]; [6]", "result": "steady decline"},
      {"measurement": "% Mortality after 1 h exposure, German cockroach", "setting": "[5]; 1 h exposure", "result": 0, "unit": "%"},
      {"measurement": "% Mortality after 24 h exposure, German cockroach", "setting": "[5]; 24 h exposure", "result": 100, "unit": "%"},
      {"measurement": "Controlling and eliminating crabgrass, comparison (FIG. 7)", "setting": "crabgrass", "result": "better results"}
    ]}
  ]
}
